Reference: PubChem BioAssay AID2060612 (Molecular Pharmacology Branch, DTP, NCI, 2025)

System: 565232-114-T-J1-PDC complex spheroid viability
Test: Anticancer human tumor 565232-114-T-J1-PDC patient-derived bladder carcinoma cell line growth inhibition [CLK]
Details: for viability, T/C: stronger effect = lower value
Summary of the method: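 Patient-derived tumor cells grown as complex spheroids with HUVEC endothelial cells and mesenchymal stem cells, treated with drug combinations. Concentrations descend in half-log steps from near clinical Cmax, or from 10 microM if Cmax unknown.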

[1] = curve of first compound, second compound 0.0316 µM
[2] = curve of first compound, second compound 0.1 µM
[3] = curve of first compound, second compound 0.316 µM
[4] = curve of first compound, second compound 1 µM
[5] = curve of first compound, second compound 3.16 µM
[6] = curve of first compound, second compound 10 µM
[7] = second compound 0.0316 µM, first compound 0.0316 µM
[8] = second compound 0.0316 µM, first compound 0.1 µM
[9] = second compound 0.0316 µM, first compound 0.316 µM
[10] = second compound 0.0316 µM, first compound 1 µM
[11] = second compound 0.0316 µM, first compound 3.16 µM
[12] = second compound 0.0316 µM, first compound 10 µM
[13] = second compound 0.1 µM, first compound 0.0316 µM
[14] = second compound 0.1 µM, first compound 0.1 µM
[15] = second compound 0.1 µM, first compound 0.316 µM
[16] = second compound 0.1 µM, first compound 1 µM
[17] = second compound 0.1 µM, first compound 3.16 µM
[18] = second compound 0.1 µM, first compound 10 µM
[19] = second compound 0.316 µM, first compound 0.0316 µM
[20] = second compound 0.316 µM, first compound 0.1 µM
[21] = second compound 0.316 µM, first compound 0.316 µM
[22] = second compound 0.316 µM, first compound 1 µM
[23] = second compound 0.316 µM, first compound 3.16 µM
[24] = second compound 0.316 µM, first compound 10 µM
[25] = second compound 1 µM, first compound 0.0316 µM
[26] = second compound 1 µM, first compound 0.1 µM
[27] = second compound 1 µM, first compound 0.316 µM
[28] = second compound 1 µM, first compound 1 µM
[29] = second compound 1 µM, first compound 3.16 µM
[30] = second compound 1 µM, first compound 10 µM
[31] = second compound 3.16 µM, first compound 0.0316 µM
[32] = second compound 3.16 µM, first compound 0.1 µM
[33] = second compound 3.16 µM, first compound 0.316 µM
[34] = second compound 3.16 µM, first compound 1 µM
[35] = second compound 3.16 µM, first compound 3.16 µM
[36] = second compound 3.16 µM, first compound 10 µM
[37] = second compound 10 µM, first compound 0.0316 µM
[38] = second compound 10 µM, first compound 0.1 µM
[39] = second compound 10 µM, first compound 0.316 µM
[40] = second compound 10 µM, first compound 1 µM
[41] = second compound 10 µM, first compound 3.16 µM
[42] = second compound 10 µM, first compound 10 µM
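Further: spheroids exposed to compounds for 7 days before readout.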
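Wherever viability, T/C is given: 100% = DMSO vehicle wells with luminescence normalized to vehicle control.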

Work on `C=CC(=O)N1CCN(c2nc(=O)n(-c3c(C)ccnc3C(C)C)c3nc(-c4c(O)cccc4F)c(F)cc23)C(C)C1` (configuration not stated) + CNC(=O)c1ccc(Nc2nc(OC3CCCC3)c3c(-c4ccc5nc(C)oc5c4)c[nH]c3n2)c(OC)c1 yielded an IC50 [1] of over 10000 nM, an IC50 [2] of over 10000 nM and an IC50 [3] of under 31.6 nM. For the same molecule, the IC50 [4] was under 31.6 nM, the IC50 [5] was under 31.6 nM and the IC50 [6] was under 31.6 nM. The viability, T/C [7] was 102%, the viability, T/C [8] was 83.5% and the viability, T/C [9] was 98.2%. The viability, T/C [10] was 94.4%, the viability, T/C [11] was 105% and the viability, T/C [12] was 118%. The viability, T/C [13] was 64.9%, the viability, T/C [14] was 55.1% and the viability, T/C [15] was 57.2%. For the same molecule, the viability, T/C [16] was 58.2%, the viability, T/C [17] was 69.6% and the viability, T/C [18] was 58.8%. It also gave a viability, T/C [19] of 35.3%, a viability, T/C [20] of 37.5% and a viability, T/C [21] of 34.3%. The viability, T/C [22] was 32.8%, the viability, T/C [23] was 42.5% and the viability, T/C [24] was 37.8%. The viability, T/C [25] was 21.6%, the viability, T/C [26] was 24.7% and the viability, T/C [27] was 25.1%. The viability, T/C [28] was 26.1%, the viability, T/C [29] was 29.1% and the viability, T/C [30] was 27.5%. It also gave a viability, T/C [31] of 21.4%, a viability, T/C [32] of 19.8% and a viability, T/C [33] of 21.8%. For the same molecule, the viability, T/C [34] was 23.6%, the viability, T/C [35] was 28.3% and the viability, T/C [36] was 23.2%. The viability, T/C [37] was 22.1%, the viability, T/C [38] was 14.6% and the viability, T/C [39] was 18.9%. For the same molecule, the viability, T/C [40] was 26%, the viability, T/C [41] was 28.1% and the viability, T/C [42] was 25%.
`NC(=O)C(=Cn1cnc(-c2cc(C(F)(F)F)cc(C(F)(F)F)c2)n1)c1cncnc1` + CN1CCN(c2cc(C(=O)Nc3cc4cc(-c5cnn(C)c5)ccc4cn3)ccn2)CC1 was tested, and the IC50 [1] was 384 nM, the IC50 [2] was 190 nM and the IC50 [3] was under 9.49 nM. The IC50 [4] was under 9.49 nM, the IC50 [5] was under 9.49 nM and the IC50 [6] was under 9.49 nM. It also gave a viability, T/C (second compound 0.0316 µM, first compound 0.00949 µM) of 110%, a viability, T/C (second compound 0.0316 µM, first compound 0.03 µM) of 79.4% and a viability, T/C (second compound 0.0316 µM, first compound 0.0949 µM) of 116%. For the same molecule, the viability, T/C (second compound 0.0316 µM, first compound 0.3 µM) was 63%, the viability, T/C (second compound 0.0316 µM, first compound 0.949 µM) was 2.12% and the viability, T/C (second compound 0.0316 µM, first compound 3 µM) was 2.86%. For the same molecule, the viability, T/C (second compound 0.1 µM, first compound 0.00949 µM) was 112%, the viability, T/C (second compound 0.1 µM, first compound 0.03 µM) was 89.6% and the viability, T/C (second compound 0.1 µM, first compound 0.0949 µM) was 69.7%. The viability, T/C (second compound 0.1 µM, first compound 0.3 µM) was 44.2%, the viability, T/C (second compound 0.1 µM, first compound 0.949 µM) was 1.42% and the viability, T/C (second compound 0.1 µM, first compound 3 µM) was 0.17%. For the same molecule, the viability, T/C (second compound 0.316 µM, first compound 0.00949 µM) was 11.2%, the viability, T/C (second compound 0.316 µM, first compound 0.03 µM) was 19.1% and the viability, T/C (second compound 0.316 µM, first compound 0.0949 µM) was 4.82%. It also gave a viability, T/C (second compound 0.316 µM, first compound 0.3 µM) of 0.31%, a viability, T/C (second compound 0.316 µM, first compound 0.949 µM) of 0.21% and a viability, T/C (second compound 0.316 µM, first compound 3 µM) of 0.15%. For the same molecule, the viability, T/C (second compound 1 µM, first compound 0.00949 µM) was 0.13%, the viability, T/C (second compound 1 µM, first compound 0.03 µM) was 1.42% and the viability, T/C (second compound 1 µM, first compound 0.0949 µM) was 0.31%. For the same molecule, the viability, T/C (second compound 1 µM, first compound 0.3 µM) was 0.24%, the viability, T/C (second compound 1 µM, first compound 0.949 µM) was 0.19% and the viability, T/C (second compound 1 µM, first compound 3 µM) was 0.08%. It also gave a viability, T/C (second compound 3.16 µM, first compound 0.00949 µM) of 0.19%, a viability, T/C (second compound 3.16 µM, first compound 0.03 µM) of 0.22% and a viability, T/C (second compound 3.16 µM, first compound 0.0949 µM) of 3.11%. For the same molecule, the viability, T/C (second compound 3.16 µM, first compound 0.3 µM) was 0.24%, the viability, T/C (second compound 3.16 µM, first compound 0.949 µM) was 1.65% and the viability, T/C (second compound 3.16 µM, first compound 3 µM) was 0.16%. For the same molecule, the viability, T/C (second compound 10 µM, first compound 0.00949 µM) was 0.14%, the viability, T/C (second compound 10 µM, first compound 0.03 µM) was 0.12% and the viability, T/C (second compound 10 µM, first compound 0.0949 µM) was 1.13%. For the same molecule, the viability, T/C (second compound 10 µM, first compound 0.3 µM) was 0.76%, the viability, T/C (second compound 10 µM, first compound 0.949 µM) was 0.21% and the viability, T/C (second compound 10 µM, first compound 3 µM) was 0.37%.
`CC1COCCN1c1cc(C2(S(C)(=N)=O)CC2)nc(-c2ccnc3[nH]ccc23)n1` (configuration not stated) + CNC(=O)c1ccc(Nc2nc(OC3CCCC3)c3c(-c4ccc5nc(C)oc5c4)c[nH]c3n2)c(OC)c1 gave an IC50 [1] of 6350 nM, an IC50 [2] of 222 nM and an IC50 [3] of under 31.6 nM. For the same molecule, the IC50 [4] was under 31.6 nM, the IC50 [5] was under 31.6 nM and the IC50 [6] was under 31.6 nM. It also gave a viability, T/C [7] of 95.2%, a viability, T/C [8] of 85.1% and a viability, T/C [9] of 93.2%. For the same molecule, the viability, T/C [10] was 79.4%, the viability, T/C [11] was 103% and the viability, T/C [12] was 23.2%. It also gave a viability, T/C [13] of 55.6%, a viability, T/C [14] of 57% and a viability, T/C [15] of 42%. The viability, T/C [16] was 44.2%, the viability, T/C [17] was 30.2% and the viability, T/C [18] was 11.5%. The viability, T/C [19] was 31.4%, the viability, T/C [20] was 38.3% and the viability, T/C [21] was 35.7%. It also gave a viability, T/C [22] of 28.6%, a viability, T/C [23] of 22% and a viability, T/C [24] of 9.67%. For the same molecule, the viability, T/C [25] was 24.7%, the viability, T/C [26] was 25.2% and the viability, T/C [27] was 25.9%. The viability, T/C [28] was 23.8%, the viability, T/C [29] was 11.1% and the viability, T/C [30] was 4.92%. The viability, T/C [31] was 19.1%, the viability, T/C [32] was 17.4% and the viability, T/C [33] was 17.4%. For the same molecule, the viability, T/C [34] was 13.3%, the viability, T/C [35] was 11.2% and the viability, T/C [36] was 2.86%. For the same molecule, the viability, T/C [37] was 19%, the viability, T/C [38] was 21.1% and the viability, T/C [39] was 20.5%. It also gave a viability, T/C [40] of 15.5%, a viability, T/C [41] of 6.6% and a viability, T/C [42] of 1.53%.
For `CNC(=O)c1ccc(Nc2nc(OC3CCCC3)c3c(-c4ccc5nc(C)oc5c4)c[nH]c3n2)c(OC)c1`, the viability, T/C (compound 0.1 µM) was 54.9% [middle of 12 runs], the viability, T/C (compound 0.316 µM) was 34.4% [middle of 12 runs] and the viability, T/C (compound 1 µM) was 22.6% [middle of 12 runs]. The viability, T/C (compound 3.16 µM) was 16% [middle of 12 runs], the viability, T/C (compound 10 µM) was 15.4% [middle of 12 runs] and the IC50 (compound alone, run of 08/01/2023) was 130 nM [middle of 12 runs].
